Measured values reported in PMC6556873, “Rapid Covalent-Probe Discovery by Electrophile-Fragment Screening” (Journal of the American Chemical Society, 2019).
Like-named read-outs stand apart in the source and are kept apart here.

How the values were obtained:
[1] = in vitro; parameters: species or system HB2, HEK293; details: human, ccd841 cells
[2] = biological target: T1, NUDT7 (Homo sapiens, UniProt P0C024); parameters: Intact protein LC/MS covalent labelling, fragments in pools of five, 200 uM each, 4 °C; details: 24 h, 4 °C, pool of five; 200 µM; covalent
T1 construct: residues 14-235, E. coli, pNIC28-Bsa4, N-terminal His6 tag removed by TEV, construct 26672 Da
Experimental: (§1) Incubations were performed at 200 μM for each compound and 2 μM of protein (10 μM for BSA) for 24 h at 4 °C with moderate shaking. Incubation buffers varied among proteins (PBS pH 7.4 for QSOX1 and BSA; 10 mM HEPES pH 7.5, 0.3 M NaCl, 0.5 mM TCEP for PCAF, UPS8, and NUDT7; […]; 10 mM Na2HPO4 pH 7.5 100 mM NaCl 5 mM β-mercaptoethanol for NV3CP; 20 mM Na phosphate pH 7.5 for NNMT; […]. The reaction was stopped by quenching with formic acid, 0.4% final concentration. Each protein was incubated with the electrophilic library in pools of five compounds per well. The pool’s composition maximized the difference in mass between fragments in the same well. Incubations were performed with each fragment at 200 μM, for 24 h at 4 °C, to allow the screening of proteins that are not stable for long time periods at higher temperatures. Following incubation, we used intact protein [compound left out] chromatography/mass spectrometry (LC/MS) to identify the fragments and quantify their labeling (Figure 3A). […] There was good agreement between the percent of labeling of NUDT7 by 100 random individual compounds and that obtained in pools of five (R^2=0.78; Figure S6 and Data set 2 in the Supporting Information).

[3] = biological target: T2, PCAF (Homo sapiens, UniProt Q92831); parameters: Intact protein LC/MS covalent labelling, fragments in pools of five, 200 uM each, 4 °C; details: 24 h, 4 °C, pool of five; 200 µM; covalent
T2 construct: gene KAT2B
Experimental: as §1

[4] = biological target: T3, BSA (Bos taurus, UniProt P02769); parameters: Intact protein LC/MS covalent labelling, fragments in pools of five, 200 uM each, 4 °C; details: 24 h, 4 °C, pool of five; 200 µM; covalent
T3 construct: gene ALB
Experimental: as §1

[5] = biological target: T4, OTUB2 (OTUB2A) (Homo sapiens, UniProt Q96DC9); parameters: Intact protein LC/MS covalent labelling, fragments in pools of five, 200 uM each, 4 °C; details: 24 h, 4 °C, pool of five; 200 µM; covalent
T4 construct: full length residues 1-234, E. coli BL21(DE3)-R3, His tag removed by TEV, construct 27312 Da
T4 sequence (Q96DC9 1-234): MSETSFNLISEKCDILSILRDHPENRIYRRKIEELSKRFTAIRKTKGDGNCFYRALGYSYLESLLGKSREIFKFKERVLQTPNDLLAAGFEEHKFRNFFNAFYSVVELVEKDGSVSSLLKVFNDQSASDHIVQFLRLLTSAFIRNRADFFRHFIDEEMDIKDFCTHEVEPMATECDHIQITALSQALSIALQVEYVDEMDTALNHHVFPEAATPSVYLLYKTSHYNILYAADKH
Experimental: as §1

[6] = in vitro; parameters: species or system CCD841, HEK293; details: human, hb2 cells, read-out: HB-2 Cells Viability (%)
[7] = in vitro; parameters: species or system HB2, CCD841; details: human, hek293 cells

T2 sequence (Q92831 whole entry, the tested form may be a part): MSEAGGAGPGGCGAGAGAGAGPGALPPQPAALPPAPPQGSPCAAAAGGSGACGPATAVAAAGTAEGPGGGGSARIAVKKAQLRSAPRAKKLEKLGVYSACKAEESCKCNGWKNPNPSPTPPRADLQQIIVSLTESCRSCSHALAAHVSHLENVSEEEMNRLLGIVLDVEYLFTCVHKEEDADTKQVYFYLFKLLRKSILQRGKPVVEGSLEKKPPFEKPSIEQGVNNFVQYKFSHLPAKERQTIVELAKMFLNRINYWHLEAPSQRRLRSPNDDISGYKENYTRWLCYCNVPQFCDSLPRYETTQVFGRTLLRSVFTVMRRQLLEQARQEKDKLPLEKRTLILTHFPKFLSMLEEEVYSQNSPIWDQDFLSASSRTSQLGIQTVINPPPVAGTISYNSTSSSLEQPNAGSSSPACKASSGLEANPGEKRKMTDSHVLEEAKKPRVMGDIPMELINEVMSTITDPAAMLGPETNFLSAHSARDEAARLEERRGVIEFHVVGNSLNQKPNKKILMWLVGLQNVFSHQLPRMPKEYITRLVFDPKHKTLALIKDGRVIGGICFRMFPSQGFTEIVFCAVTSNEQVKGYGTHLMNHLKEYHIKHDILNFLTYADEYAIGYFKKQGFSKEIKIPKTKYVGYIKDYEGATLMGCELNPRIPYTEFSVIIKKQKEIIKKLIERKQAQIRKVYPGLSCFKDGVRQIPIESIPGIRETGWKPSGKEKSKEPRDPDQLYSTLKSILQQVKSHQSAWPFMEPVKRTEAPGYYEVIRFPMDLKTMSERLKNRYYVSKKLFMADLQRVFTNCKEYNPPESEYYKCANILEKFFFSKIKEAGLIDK
T1 sequence (P0C024 14-235): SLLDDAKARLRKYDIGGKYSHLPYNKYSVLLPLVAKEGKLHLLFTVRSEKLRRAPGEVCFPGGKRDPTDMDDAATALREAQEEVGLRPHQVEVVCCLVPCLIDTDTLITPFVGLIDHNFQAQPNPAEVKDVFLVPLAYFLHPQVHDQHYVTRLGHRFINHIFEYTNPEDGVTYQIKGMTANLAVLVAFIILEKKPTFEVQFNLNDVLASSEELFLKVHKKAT
T3 sequence (P02769 whole entry, the tested form may be a part): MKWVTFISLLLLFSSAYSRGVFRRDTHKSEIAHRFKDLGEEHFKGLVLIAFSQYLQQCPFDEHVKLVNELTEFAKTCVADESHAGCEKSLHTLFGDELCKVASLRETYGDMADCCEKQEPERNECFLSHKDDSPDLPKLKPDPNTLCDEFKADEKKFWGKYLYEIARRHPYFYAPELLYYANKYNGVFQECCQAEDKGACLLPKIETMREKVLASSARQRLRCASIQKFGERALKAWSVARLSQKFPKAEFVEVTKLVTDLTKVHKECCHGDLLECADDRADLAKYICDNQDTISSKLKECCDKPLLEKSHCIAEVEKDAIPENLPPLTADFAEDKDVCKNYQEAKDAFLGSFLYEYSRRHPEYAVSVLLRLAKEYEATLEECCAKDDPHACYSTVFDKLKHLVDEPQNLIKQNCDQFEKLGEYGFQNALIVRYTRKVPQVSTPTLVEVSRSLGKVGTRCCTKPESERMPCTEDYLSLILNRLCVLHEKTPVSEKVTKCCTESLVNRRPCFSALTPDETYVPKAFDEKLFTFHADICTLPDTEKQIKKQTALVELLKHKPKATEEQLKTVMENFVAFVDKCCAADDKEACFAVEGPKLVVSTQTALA

| Structure (SMILES) | viability at 48 h, 10 µM [1] | NUDT7 [2] | PCAF [3] | BSA [4] | OTUB2 [5] | viability at 48 h, 10 µM [6] | viability at 48 h, 10 µM [7] |
| --- | --- | --- | --- | --- | --- | --- | --- |
| O=C(CCl)N1CCc2sccc2C1 [PCM-0102123] | 73.1% | 0.14 | 0 | 0 | 0.39 | 9.2% | 6.6% |
| O=C(CCl)N1CCN(c2ccc(Cl)cc2[N+](=O)[O-])CC1 [PCM-0102125] | 8.1% | 0.29 | 0 | 0 | 0 | 2.3% | 1.4% |
| O=C(CCl)Nc1ccc(Cl)cc1C(=O)O [PCM-0102127] | 104% | 0 | 0 | 0 | 0.1 | 100% | 86.8% |
| CC(=O)N1CCc2cc(NC(=O)CCl)ccc21 [PCM-0102129] | 50.6% | 0.07 | 0 | 0 | 0.31 | 33.4% | 5.9% |
| Cc1c(Cl)cccc1NC(=O)CCl [PCM-0102130] | 48.1% | 0 | 0 | 0 | 0 | 26% | 4.9% |
| Cc1ccc(-n2nc(C)c(NC(=O)CCl)c2C)cc1 [PCM-0102131] | 26.3% | 0 | 0 | 0 | 0 | 63.8% | 30.1% |
| CC(C)c1cc(NC(=O)CCl)on1 [PCM-0102132] | 69.9% | 0 | 0 | 0 | 0 | 70.9% | 70.6% |
| Cl.O=C(CCl)N1CCN(CC(=O)N2CCOCC2)CC1 [PCM-0102133] | 94.8% | 0 | 0 | 0 | 0.15 | 96.6% | 92.7% |
| Cc1cc([N+](=O)[O-])ccc1NC(=O)CCl [PCM-0102134] | 60.9% | 0.1 | 0 | 0 | 0.11 | 44.3% | 18.1% |
| Cl.O=C(CCl)N1CCN(Cc2c(F)cccc2Cl)CC1 [PCM-0102137] | 59.5% | 0 | 0 | 0 | 0 | 20.8% | 25.8% |
| COc1ccc(NC(=O)CCl)cn1 [PCM-0102140] | 63.7% | 0 | 0 | 0 | 0 | 62% | 44.3% |
| CS(=O)(=O)c1ccccc1NC(=O)CCl [PCM-0102141] | 98.2% | 0 | 0 | 0 | 0 | 96.8% | 96.8% |
| O=C(CCl)NNC(=O)c1cc2c(s1)CCCC2 [PCM-0102142] | 62.6% | 0.09 | 0 | 0 | 1 | 49% | 52.6% |
| COC(=O)c1c(NC(=O)CCl)sc2c1CCCC2 [PCM-0102143] | 68.1% | 0.39 | 0 | 0 | 0.05 | 31.6% | 8.6% |
| O=C(CCl)Nc1nc2c(F)c(F)c(F)cc2s1 [PCM-0102144] | 57.9% | 0.32 | 0 | 0.12 | 0 | 90.9% | 83.1% |
| Cc1c(C#N)c(NC(=O)CCl)n(-c2cccc(F)c2)c1C [PCM-0102146] | 47.1% | 0.58 | 0 | 0 | 0.1 | 25% | 3.5% |
| Cc1nnc(NC(=O)CCl)o1 [PCM-0102147] | 107% | 0 | 0 | 0 | 0 | 102% | 92.2% |
| O=C(CCl)N1CCC(c2ccccc2)=N1 [PCM-0102150] | 71.8% | 0 | 0 | 0 | 0 | 31.2% | 32.7% |
| O=C(CCl)NC(=O)OCc1ccccc1 [PCM-0102153] | 109% | 0 | 0 | 0 | 0.79 | 96% | 82.8% |
| O=C(CCl)Nc1cccc(I)c1 [PCM-0102154] | 49% | 0.24 | 0 | 0 | 0.49 | 12.7% | 1.7% |
| O=C(CCl)N(CC(F)(F)F)c1ccc(Cl)cc1 [PCM-0102155] | 3.5% | 0.79 | 0 | 0 | 0 | 11.2% | 4.3% |
| CC(NC(=O)CCl)C1CC1 (centres unmarked) [PCM-0102157] | 103% | 0 | 0 | 0 | 0.1 | 87.6% | 111% |
| O=C(CCl)N1CCc2ccccc21 [PCM-0102160] | 44.6% | 0 | 0 | 0 | 0 | 6.1% | 16.3% |
| CCC(C)(C)NC(=O)CCl [PCM-0102161] | 100% | 0 | 0 | 0 | 0.09 | 99.3% | 116% |
| NS(=O)(=O)c1cccc(NC(=O)CCl)c1 [PCM-0102162] | 35.4% | 0 | 0 | 0 | 0.58 | 17.4% | 1.1% |
| O=C(CCl)Nc1ccc(O)cc1 [PCM-0102163] | 60.5% | 0 | 0 | 0 | 0.16 | 67.8% | 38.2% |
| NC(=O)c1c(NC(=O)CCl)sc2c1CCC2 [PCM-0102164] | 25.6% | 0.28 | 0 | 0 | 0 | 27.2% | 2.6% |
| Cc1cc(S(N)(=O)=O)cc(NC(=O)CCl)c1C [PCM-0102165] | 61.3% | 0.09 | 0 | 0 | 0.12 | 34.5% | 8.3% |
| Cc1cccc(C(=O)O)c1NC(=O)CCl [PCM-0102167] | 102% | 0 | 0 | 0 | 0 | 101% | 104% |
